Values quoted from earlier work, collected in patent publication US9629360B2, “Water-based pesticidal suspension” (priority 2010, dated 2017).
Values after ≈ are worked out from the molar mass of the structure shown.

Details: 20° C.

Structure (SMILES) | aqueous solubility [µg/mL]
COP(=O)(OC)SCn1c(=O)oc2cc(Cl)cnc21 [azamethiphos] | 1100 (≈ 3.39 mM)
Cc1nc(N(C)C)nc(OC(=O)N(C)C)c1C [pirimicarb] | 3100 (≈ 13 mM)
